The results in this text go back to US11957683B2, “Bicyclic compounds” (Aligos Therapeutics, Inc., priority 2021, dated 2024).

One data set relates to HBV. The experiment in a line: HBV-DNA antiviral assay using HepG2.117 cells. It counts as cell-based, HBV genotype D. To be noted: Hepatitis B virus. How it is done: (§1) The following assay procedure describes the HBV antiviral assay, using HepG2.117 cells, which carry a stably integrated genotype D HBV genome under the control of a Tet-off promoter, and intracellular HBV DNA quantification as endpoint. Cell viability is assessed in parallel by measuring the intracellular ATP content using CellTiter-Glo 2.0 (Promega).
On day 0, HepG2.117 cells (which are maintained in routine cell culture with doxycycline present in the medium at a final concentration of 1 μg/mL) are seeded in 96-well plates (white with clear bottom) at a density of 2.0×10^4 cells/well (0.1 mL/well) in medium without doxycycline to induce pgRNA transcription and subsequent formation of HBV particles. The cells are incubated at 37° C. and 5% CO2.
(§2) On day 1, medium is removed from each well, the test articles are diluted in culture medium without doxcycyline and 100 μL was added to cell culture wells (9 concentrations, 4-fold dilution). For each plate, 6 untreated (merely DMSO) wells are included. The final concentration of DMSO in the culture medium is 2%. Each plate is prepared in duplicate (one for HBV DNA extraction, one for CellTiter-Glo 2.0 measurement). The cells are incubated at 37° C. and 5% CO2 for 3 days.
(§3) On day 4, cell viability is assessed using CellTiter-Glo 2.0 and cell lysates are prepared for HBV DNA extraction and subsequent quantification by qPCR.
Medium is removed from each well and 100 μL of 0.33% NP-40 in H2O was added to each well. Plates are sealed, incubated at 4° C. for 5 mins, vortexed extensively and centrifuged briefly. Next, 35 μL of lysate is added to 65 μL QuickExtract DNA Extraction Solution (Epicentre) in a PCR plate for each well. PCR plate is incubated at 65° C. for 6 mins, 98° C. for 2 mins and finally cooled to 4° C. HBV DNA is then quantified by qPCR with HBV-specific primers and probes as specified in Table 2 using the Bio-Rad SSOAdvanced Universal Probes Supermix on a CFX96 machine (Bio-Rad). The PCR cycle program consisted of 95° C. for 3 mins, followed by 40 cycles at 95° C. for 10 sec and 60° C. for 30 sec.
A DNA standard is prepared by dilution of an IDT gBlock corresponding to the amplicon with concentrations ranging from 10^2 to 10^8 copies/input (i.e., per 4 μL) and used to generate a standard curve by plotting Cq values vs. HBV DNA standard concentration. The quantity of HBV DNA in each sample is determined by interpolating from the standard curve.
(§4) Cell viability is calculated as follows: % Cell viability=(luminescence value of test sample)/(average luminescence value of 2% DMSO control)×100%. HBV DNA inhibition was calculated as follows: 100−(HBV DNA copy number of test sample)/(average HBV DNA copy number of 2% DMSO control)×100%. No normalization to entecavir is required due to the excellent dynamic window of this assay. The CC50, EC50 and EC90 values were determined by dose-response curves fitted using non-linear regression.

The nature of data set [1]: Cell viability by CellTiter-Glo 2.0 (intracellular ATP) in HepG2.117 cells. It counts as cell-based. To be noted: human, CellTiter-Glo 2.0, HepG2.117 cells, 3 days incubation. Here is the method:
as §1, §2, §3
Using the other plates, the cell viability is quantified by CellTiter-Glo 2.0 according to the manufacturer's manual. In brief, 100 μL of reagent solution is added to the culture plates and shaken for 2′. The plates are incubated at rt for 10 min and luminescence signal is subsequently measured on a VarioSkan Lux (ThermoFisher) plate reader.
as §4
In general terms: Cellular ATP, detected with luciferase, serves as a proxy for viable cell number.

Setting [2] is: 72 h, HBV DNA inhibition, intracellular HBV DNA by qPCR, HepG2.117 cells, 3 days incubation, read-out: EC50.

Read-outs that look alike come from different tables or passages of the source. Where only a bound is given, the exact number is not on record here.

As a reminder, the EC50 is the concentration giving half of the maximal effect. As usually defined, the CC50 is the concentration that lowers cell viability or growth by half. High values mean lower toxicity to the cells, low ones greater toxicity to the cells. As to `C=C[C@H](C)Nc1nc2c(c(=O)n1-c1ccc(C(=O)NC)cc1Cl)C[C@@H](C)N(C(=O)c1ccc(Br)c(C(F)(F)F)c1)C2` (atropisomer, axis not shown) [Compound 44, 4-[(6R)-7-[4-bromo-3-(trifluoromethyl)benzoyl]-6-methyl-2-[[(1S)-1-methylallyl]amino]-4-oxo-6,8-dihydro-5H-pyrido[3,4-d]pyrimidin-3-yl]-3-chloro-N-methyl-benzamide], the EC50 in the data set on HBV (setting [2]) is below 50 nM. Besides, the CC50 at 3 days in data set [1] was above 50 µM.
Regarding `C=CC(C)Nc1nc2c(c(=O)n1-c1ccc(C(=O)NC)cc1)C[C@@H](C)N(C(=O)c1ccc(Br)c(C(F)(F)F)c1)C2` (single isomer, unassigned) [Compound 2a], the EC50 in the data set on HBV (setting [2]) is below 50 nM. In data set [1], the CC50 at 3 days is above 0.5 µM.
The like results for `C=CC(C)Nc1nc2c(c(=O)n1-c1ccc(-c3[nH]nnc3C)cc1)C[C@@H](C)N(C(=O)c1ccc(Br)c(C(F)(F)F)c1)C2` (single isomer, unassigned) [Compound 3a] were, in that order, below 50 nM and above 0.5 µM.
As to `C=C[C@H](C)Nc1nc2c(c(=O)n1-c1ccc(OCC(C)O)cc1)C[C@@H](C)N(C(=O)c1ccc(Br)c(C(F)(F)F)c1)C2` (stereo in doubt) [Compound 31, (R)-7-(4-bromo-3-(trifluoromethyl)benzoyl)-2-(((S)-but-3-en-2-yl)amino)-3-(4-((S)-2-hydroxypropoxy)phenyl)-6-methyl-5,6,7,8-tetrahydropyrido[3,4-d]pyrimidin-4(3H)-one], the EC50 in the data set with HBV (setting [2]) is below 50 nM. Moreover, the CC50 at 3 days in data set [1] amounted to 29.6 µM.
Take `C=CC(C)(C)Nc1nc2c(c(=O)n1-c1ccc(C(=O)NC)cc1)C[C@@H](C)N(C(=O)c1ccc(Br)c(C(F)(F)F)c1)C2` [Compound 1, (R)-4-(7-(4-bromo-3-(trifluoromethyl)benzoyl)-6-methyl-2-((2-methylbut-3-en-2-yl)amino)-4-oxo-5,6,7,8-tetrahydropyrido[3,4-d]pyrimidin-3(4H)-yl)-N-methylbenzamide]: in the data set on HBV (setting [2]), the EC50 is below 50 nM. The compound further yielded a CC50 at 3 days in data set [1] above 0.5 µM.
In the data set with HBV (HepG2.117, 72 h), `C=C[C@H](C)Nc1nc2c(c(=O)n1-c1ccc(-c3nnc(C)[nH]3)cc1)C[C@@H](C)N(C(=O)c1ccc(Br)c(C(F)(F)F)c1)C2` [Compound 4a, (R)-7-(4-bromo-3-(trifluoromethyl)benzoyl)-2-(((S)-but-3-en-2-yl)amino)-6-methyl-3-(4-(5-methyl-4H-1,2,4-triazol-3-yl)phenyl)-5,6,7,8-tetrahydropyrido[3,4-d]pyrimidin-4(3H)-one] returned an EC50 below 50 nM. Further, in data set [1], the CC50 at 3 days was above 0.5 µM.
In the case of `C=CCNc1nc2c(c(=O)n1-c1ccc(C(=O)NC)cc1)C[C@@H](C)N(C(=O)c1ccc(Br)c(C(F)(F)F)c1)C2` [Compound 5], the EC50 in the data set on HBV (setting [2]) was below 50 nM. In addition, the CC50 at 3 days in data set [1] was above 50 µM.
In the case of `C=CCN(C)c1nc2c(c(=O)n1-c1ccc(C(=O)NC)cc1)C[C@@H](C)N(C(=O)c1ccc(Br)c(C(F)(F)F)c1)C2` [Compound 6], in the data set with HBV (setting [2]), the EC50 was below 50 nM. The compound also showed a 50% cytotoxic concentration (CC50) at 3 days in data set [1] above 0.5 µM.
As for `CNC(=O)c1ccc(-n2c(NCC=C(C)C)nc3c(c2=O)C[C@@H](C)N(C(=O)c2ccc(Br)c(C(F)(F)F)c2)C3)cc1` [Compound 7], the EC50 in the data set with HBV (setting [2]) is below 50 nM. This compound had a CC50 at 3 days in data set [1] of 7.35 µM.
`C=CC1(Nc2nc3c(c(=O)n2-c2ccc(C(=O)NC)cc2)C[C@@H](C)N(C(=O)c2ccc(Br)c(C(F)(F)F)c2)C3)CCC1` [Compound 8]: the EC50 with HBV (setting [2]) was below 50 nM. In data set [1], this compound returned a CC50 at 3 days of 7.33 µM.
For `C=C[C@H](C)Nc1nc2c(c(=O)n1-c1cc(C(=O)NC)n(C)n1)C[C@@H](C)N(C(=O)c1ccc(Br)c(C(F)(F)F)c1)C2` [Compound 9, 3-((R)-7-(4-bromo-3-(trifluoromethyl)benzoyl)-2-(((S)-but-3-en-2-yl)amino)-6-methyl-4-oxo-5,6,7,8-tetrahydropyrido[3,4-d]pyrimidin-3(4H)-yl)-N,1-dimethyl-1H-pyrazole-5-carboxamide], in the data set with HBV (setting [2]), the EC50 is below 50 nM. This compound also registered a CC50 at 3 days in data set [1] above 50 µM.
The corresponding values for `C=CC(C)N(C)c1nc2c(c(=O)n1-c1ccc(C(=O)NC)cc1)C[C@@H](C)N(C(=O)c1ccc(Br)c(C(F)(F)F)c1)C2` (stereo partly drawn) [Compound 10a] are below 50 nM and above 50 µM.
The corresponding values for `C=CC(Nc1nc2c(c(=O)n1-c1ccc(C(=O)NC)cc1)C[C@@H](C)N(C(=O)c1ccc(Br)c(C(F)(F)F)c1)C2)C1CC1` (stereo partly drawn) [Compound 11a] are below 50 nM and above 50 µM.
`C=C[C@H](C)Nc1nc2c(c(=O)n1-c1ccc(OC3CC3)cc1)C[C@@H](C)N(C(=O)c1ccc(Br)c(C(F)(F)F)c1)C2` [Compound 12, (R)-7-(4-bromo-3-(trifluoromethyl)benzoyl)-2-((S)-but-3-en-2-ylamino)-3-(4-cyclopropoxyphenyl)-6-methyl-5,6,7,8-tetrahydropyrido[3,4-d]pyrimidin-4(3H)-one]: in the data set on HBV (setting [2]), the EC50 was below 50 nM. The CC50 at 3 days in data set [1] is above 50 µM.
With `C=C[C@H](C)Nc1nc2c(c(=O)n1-c1ccc3c(c1)nnn3C)C[C@@H](C)N(C(=O)c1ccc(Br)c(C(F)(F)F)c1)C2` [Compound 13, (R)-7-(4-bromo-3-(trifluoromethyl)benzoyl)-2-(((S)-but-3-en-2-yl)amino)-6-methyl-3-(1-methyl-1H-benzo[d][1,2,3]triazol-5-yl)-5,6,7,8-tetrahydropyrido[3,4-d]pyrimidin-4(3H)-one], the EC50 in the data set on HBV (setting [2]) is below 50 nM. For the same compound, it took 48 µM to reach half-maximal cytotoxicity in data set [1] (CC50 at 3 days).
With `CNC(=O)c1ccc(-n2c(C#CC(C)(C)N)nc3c(c2=O)C[C@@H](C)N(C(=O)c2ccc(Br)c(C(F)(F)F)c2)C3)cc1` [Compound 14, (R)-4-(2-(3-amino-3-methylbut-1-yn-1-yl)-7-(4-bromo-3-(trifluoromethyl)benzoyl)-6-methyl-4-oxo-5,6,7,8-tetrahydropyrido[3,4-d]pyrimidin-3(4H)-yl)-N-methylbenzamide], the EC50 in the data set on HBV (setting [2]) lay within 50 to 500 nM. Moreover, in data set [1], the CC50 at 3 days is above 0.5 µM.
For the compound `C=CC(Nc1nc2c(c(=O)n1-c1ccc(C(=O)NC)cc1)C[C@@H](C)N(C(=O)c1ccc(Br)c(C(F)(F)F)c1)C2)C1CCC1` (stereo partly drawn) [Compound 15], the EC50 with HBV (setting [2]) is below 50 nM. For the same compound, in data set [1], the CC50 at 3 days is above 0.5 µM.
`C=CC(COC)Nc1nc2c(c(=O)n1-c1ccc(C(=O)NC)cc1)C[C@@H](C)N(C(=O)c1ccc(Br)c(C(F)(F)F)c1)C2` (stereo partly drawn) [Compound 16]: the EC50 with HBV (setting [2]) was below 50 nM. The same compound registered a CC50 at 3 days in data set [1] above 0.5 µM.
Take `C=C[C@H](C)Nc1nc2c(c(=O)n1-c1ccc3c(c1)ncn3C)C[C@@H](C)N(C(=O)c1ccc(Br)c(C(F)(F)F)c1)C2` [Compound 17, (R)-7-(4-bromo-3-(trifluoromethyl)benzoyl)-2-(((S)-but-3-en-2-yl)amino)-6-methyl-3-(1-methyl-1H-benzo[d]imidazol-5-yl)-5,6,7,8-tetrahydropyrido[3,4-d]pyrimidin-4(3H)-one]: the EC50 in the data set on HBV (setting [2]) is below 50 nM. Besides, the CC50 at 3 days in data set [1] is above 0.5 µM.
For `C=C[C@@H](C)Nc1nc2c(c(=O)n1-c1ccc3c(c1)ncn3C)C[C@@H](C)N(C(=O)c1ccc(Br)c(C(F)(F)F)c1)C2` [Compound 18, (R)-7-(4-bromo-3-(trifluoromethyl)benzoyl)-2-(((R)-but-3-en-2-yl)amino)-6-methyl-3-(1-methyl-1H-benzo[d]imidazol-5-yl)-5,6,7,8-tetrahydropyrido[3,4-d]pyrimidin-4(3H)-one], in the data set with HBV (setting [2]), the EC50 was below 50 nM. Further, the CC50 at 3 days in data set [1] is above 0.5 µM.
Turning to `C=C[C@@H](C)Nc1nc2c(c(=O)n1-c1ccc(C(=O)NC)c(Cl)c1)C[C@@H](C)N(C(=O)c1ccc(Br)c(C(F)(F)F)c1)C2` [Compound 19, 4-((R)-7-(4-bromo-3-(trifluoromethyl)benzoyl)-2-(((R)-but-3-en-2-yl)amino)-6-methyl-4-oxo-5,6,7,8-tetrahydropyrido[3,4-d]pyrimidin-3(4H)-yl)-2-chloro-N-methylbenzamide], the EC50 in the data set on HBV (setting [2]) was below 50 nM. The CC50 at 3 days in data set [1] was above 0.5 µM.
